Patent US11370770B2, “3-arylindazoles as selective MEK4 inhibitors” (priority 2019, dated 2022)

How the values were obtained:
IKK-EPSILON = IKK-EPSILON (Homo sapiens (Human), UniProt Q14164); experiment: KINOMEscan binding assay; conditions: percent of control
PCTK3 = PCTK3 (Homo sapiens (Human), UniProt Q07002); experiment: KINOMEscan binding assay; conditions: percent of control
ABL2 = ABL2 (Homo sapiens (Human), UniProt P42684); experiment: KINOMEscan binding assay; conditions: percent of control
EPHA6 = EPHA6 (Homo sapiens (Human), UniProt Q9UF33); experiment: KINOMEscan binding assay; conditions: percent of control
[1] = target: ABL1(T3151)-phosphorylated (Homo sapiens (Human), UniProt P00519, T315I); experiment: KINOMEscan binding assay; conditions: percent of control
AAK1 = AAK1 (Homo sapiens (Human), UniProt Q2M2I8); experiment: KINOMEscan binding assay; conditions: percent of control
MEK6 [2] = target: T1, MEK6 (Homo sapiens (Human), UniProt P52564); experiment: KINOMEscan binding assay; conditions: percent of control
T1 sequence (P52564 whole entry): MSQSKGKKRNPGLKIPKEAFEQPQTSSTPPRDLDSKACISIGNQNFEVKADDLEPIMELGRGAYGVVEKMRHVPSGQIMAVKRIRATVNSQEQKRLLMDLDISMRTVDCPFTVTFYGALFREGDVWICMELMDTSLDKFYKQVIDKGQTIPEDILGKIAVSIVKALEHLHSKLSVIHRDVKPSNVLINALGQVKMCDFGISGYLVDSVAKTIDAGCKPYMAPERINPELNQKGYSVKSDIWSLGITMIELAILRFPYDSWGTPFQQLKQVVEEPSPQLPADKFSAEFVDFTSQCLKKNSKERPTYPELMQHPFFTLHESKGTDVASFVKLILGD

CAMK4 = CAMK4 (Homo sapiens (Human), UniProt Q16566); experiment: KINOMEscan binding assay; conditions: percent of control
panel of 57 kinases = conditions: 10 μM; S(35) criterion
SNARK = SNARK (Homo sapiens (Human), UniProt Q9H093); experiment: KINOMEscan binding assay; conditions: percent of control
[3] = Dynamic light scattering (compound aggregation); assay type: physicochemical; conditions: 20, 5 and 1 μM in buffer with and without Triton X-100
ERK2 = ERK2 (Homo sapiens (Human), UniProt P28482); experiment: KINOMEscan binding assay; conditions: percent of control
Sequence of ERK2 (P28482 whole entry): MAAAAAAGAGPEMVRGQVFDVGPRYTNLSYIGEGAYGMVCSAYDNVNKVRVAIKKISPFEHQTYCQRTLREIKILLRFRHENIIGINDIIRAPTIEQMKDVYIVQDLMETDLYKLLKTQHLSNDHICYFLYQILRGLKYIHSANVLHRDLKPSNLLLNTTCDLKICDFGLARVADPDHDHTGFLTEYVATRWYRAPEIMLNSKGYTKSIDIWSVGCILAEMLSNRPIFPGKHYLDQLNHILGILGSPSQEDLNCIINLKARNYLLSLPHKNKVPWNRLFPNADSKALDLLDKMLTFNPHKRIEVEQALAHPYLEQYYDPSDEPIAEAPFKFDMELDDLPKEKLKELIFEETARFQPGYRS

MAP3K4 = MAP3K4 (Homo sapiens (Human), UniProt Q9Y6R4); experiment: KINOMEscan binding assay; conditions: percent of control
Sequence of MAP3K4 (Q9Y6R4 whole entry): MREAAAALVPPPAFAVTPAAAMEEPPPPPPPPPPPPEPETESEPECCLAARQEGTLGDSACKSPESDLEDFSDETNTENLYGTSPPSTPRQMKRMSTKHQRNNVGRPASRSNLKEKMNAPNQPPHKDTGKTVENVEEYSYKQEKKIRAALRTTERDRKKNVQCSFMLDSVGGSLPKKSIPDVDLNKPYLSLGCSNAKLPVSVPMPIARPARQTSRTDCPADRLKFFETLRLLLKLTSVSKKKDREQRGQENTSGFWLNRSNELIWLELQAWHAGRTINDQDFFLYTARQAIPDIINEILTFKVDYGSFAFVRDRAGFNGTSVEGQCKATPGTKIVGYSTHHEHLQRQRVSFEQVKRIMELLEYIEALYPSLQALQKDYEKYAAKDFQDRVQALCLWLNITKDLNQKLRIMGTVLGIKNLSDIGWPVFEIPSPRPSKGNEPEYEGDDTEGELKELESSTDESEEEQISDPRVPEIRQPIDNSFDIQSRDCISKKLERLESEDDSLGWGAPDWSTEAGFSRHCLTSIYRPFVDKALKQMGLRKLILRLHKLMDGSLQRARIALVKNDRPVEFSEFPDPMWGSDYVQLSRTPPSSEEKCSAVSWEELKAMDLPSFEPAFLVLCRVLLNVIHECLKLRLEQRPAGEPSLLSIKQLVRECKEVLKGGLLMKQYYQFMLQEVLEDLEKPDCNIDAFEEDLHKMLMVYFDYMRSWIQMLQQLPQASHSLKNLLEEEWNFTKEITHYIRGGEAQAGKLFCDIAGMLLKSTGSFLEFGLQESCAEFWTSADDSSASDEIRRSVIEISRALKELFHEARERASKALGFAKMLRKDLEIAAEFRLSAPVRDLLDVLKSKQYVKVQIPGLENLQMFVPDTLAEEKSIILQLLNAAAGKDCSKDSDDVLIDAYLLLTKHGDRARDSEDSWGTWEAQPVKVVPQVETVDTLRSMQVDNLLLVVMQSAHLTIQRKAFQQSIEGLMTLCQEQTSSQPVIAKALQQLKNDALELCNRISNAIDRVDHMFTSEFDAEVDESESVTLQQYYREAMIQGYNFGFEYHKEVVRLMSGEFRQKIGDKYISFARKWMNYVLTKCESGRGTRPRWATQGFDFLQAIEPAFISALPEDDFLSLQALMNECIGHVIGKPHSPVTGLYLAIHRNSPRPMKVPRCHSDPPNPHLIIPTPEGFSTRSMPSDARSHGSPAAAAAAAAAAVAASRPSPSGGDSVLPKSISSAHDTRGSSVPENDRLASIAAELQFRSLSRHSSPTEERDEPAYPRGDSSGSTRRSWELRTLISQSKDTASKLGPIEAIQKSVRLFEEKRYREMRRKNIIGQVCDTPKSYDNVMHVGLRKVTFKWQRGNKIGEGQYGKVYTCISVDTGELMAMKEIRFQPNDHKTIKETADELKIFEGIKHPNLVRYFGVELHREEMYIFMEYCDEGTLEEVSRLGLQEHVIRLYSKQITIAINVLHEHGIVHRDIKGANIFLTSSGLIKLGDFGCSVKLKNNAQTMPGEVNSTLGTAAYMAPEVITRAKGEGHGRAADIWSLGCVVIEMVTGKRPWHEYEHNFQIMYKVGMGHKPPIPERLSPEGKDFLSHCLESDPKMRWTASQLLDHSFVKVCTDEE

ALK(L1196M) = ALK(L1196M) (Homo sapiens (Human), UniProt Q9UM73, L1196M); experiment: KINOMEscan binding assay; conditions: percent of control
MEK6 [4] = target: T1, MEK6; experiment: MEK family profiling ADP-Glo, MEK6; assay type: biochemical; conditions: p38α substrate; 0.6 μM ATP; read-out: IC50 MEK isoform 6
MEK1 [5] = target: T2, MEK1 (Homo sapiens (Human), UniProt Q02750); experiment: MEK family profiling ADP-Glo, MEK1; assay type: biochemical; conditions: Erk2 substrate; 0.6 μM ATP; read-out: IC50 MEK isoform 1
T2 sequence (Q02750 whole entry, canonical isoform): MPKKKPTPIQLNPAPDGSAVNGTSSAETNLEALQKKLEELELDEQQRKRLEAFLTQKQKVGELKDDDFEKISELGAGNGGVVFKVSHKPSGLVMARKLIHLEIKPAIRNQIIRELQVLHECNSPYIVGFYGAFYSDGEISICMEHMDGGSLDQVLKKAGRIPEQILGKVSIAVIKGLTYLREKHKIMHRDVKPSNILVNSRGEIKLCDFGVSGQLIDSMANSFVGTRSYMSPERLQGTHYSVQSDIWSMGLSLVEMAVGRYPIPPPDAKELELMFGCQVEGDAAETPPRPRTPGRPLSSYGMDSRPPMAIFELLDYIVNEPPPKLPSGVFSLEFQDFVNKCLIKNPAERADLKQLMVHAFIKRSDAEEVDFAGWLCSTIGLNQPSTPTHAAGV

MEK3 = MEK3 (Homo sapiens (Human), UniProt P46734); experiment: KINOMEscan binding assay; conditions: percent of control
Sequence of MEK3 (P46734 whole entry): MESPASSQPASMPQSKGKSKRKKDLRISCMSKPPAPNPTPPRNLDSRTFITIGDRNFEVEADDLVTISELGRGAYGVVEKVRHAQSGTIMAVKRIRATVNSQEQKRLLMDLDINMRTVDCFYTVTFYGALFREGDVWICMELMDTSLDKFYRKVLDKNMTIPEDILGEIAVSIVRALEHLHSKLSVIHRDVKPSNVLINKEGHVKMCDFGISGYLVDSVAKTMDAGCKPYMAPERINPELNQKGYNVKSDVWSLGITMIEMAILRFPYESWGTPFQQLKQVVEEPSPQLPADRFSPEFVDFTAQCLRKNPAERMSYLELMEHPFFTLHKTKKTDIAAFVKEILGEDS

MKK7 = MKK7 (Homo sapiens (Human), UniProt O14733); experiment: KINOMEscan binding assay; conditions: percent of control
Sequence of MKK7 (O14733 whole entry): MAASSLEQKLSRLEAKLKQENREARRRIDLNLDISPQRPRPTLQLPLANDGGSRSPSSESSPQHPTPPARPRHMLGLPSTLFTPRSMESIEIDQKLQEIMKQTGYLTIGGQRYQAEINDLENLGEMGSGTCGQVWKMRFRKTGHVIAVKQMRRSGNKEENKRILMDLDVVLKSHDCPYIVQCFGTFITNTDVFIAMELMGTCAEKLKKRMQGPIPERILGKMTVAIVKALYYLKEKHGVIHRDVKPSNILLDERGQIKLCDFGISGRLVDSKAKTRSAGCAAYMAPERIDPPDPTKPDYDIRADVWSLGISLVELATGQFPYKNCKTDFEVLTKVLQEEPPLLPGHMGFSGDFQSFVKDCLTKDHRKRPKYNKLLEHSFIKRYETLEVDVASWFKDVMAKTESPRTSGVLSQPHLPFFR

PRP6 = experiment: KINOMEscan binding assay; conditions: percent of control
MEK5 = MEK5 (Homo sapiens (Human), UniProt Q13163); experiment: KINOMEscan binding assay; conditions: percent of control
Sequence of MEK5 (Q13163 whole entry): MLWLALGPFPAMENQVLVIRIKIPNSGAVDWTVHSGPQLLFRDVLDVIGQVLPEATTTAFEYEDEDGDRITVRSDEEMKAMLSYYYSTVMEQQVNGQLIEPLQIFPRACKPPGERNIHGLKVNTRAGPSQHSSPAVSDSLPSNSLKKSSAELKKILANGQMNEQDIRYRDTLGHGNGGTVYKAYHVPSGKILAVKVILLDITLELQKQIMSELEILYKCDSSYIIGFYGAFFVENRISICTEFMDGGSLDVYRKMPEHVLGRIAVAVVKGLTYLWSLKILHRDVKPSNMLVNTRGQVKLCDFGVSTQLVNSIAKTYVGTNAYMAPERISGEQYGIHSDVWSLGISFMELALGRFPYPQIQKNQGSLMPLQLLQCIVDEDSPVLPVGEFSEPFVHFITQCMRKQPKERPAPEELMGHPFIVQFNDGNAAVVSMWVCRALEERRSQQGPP

MUSK = MUSK (Homo sapiens (Human), UniProt O15146); experiment: KINOMEscan binding assay; conditions: percent of control
MLK2 = MLK2 (Homo sapiens (Human), UniProt Q02779); experiment: KINOMEscan binding assay; conditions: percent of control
PC3M cells = experiment: Scratch wound assay; assay type: cell-based
MEK1 [6] = target: T2, MEK1; experiment: KINOMEscan binding assay; conditions: percent of control

Sequence of IKK-EPSILON (Q14164 whole entry): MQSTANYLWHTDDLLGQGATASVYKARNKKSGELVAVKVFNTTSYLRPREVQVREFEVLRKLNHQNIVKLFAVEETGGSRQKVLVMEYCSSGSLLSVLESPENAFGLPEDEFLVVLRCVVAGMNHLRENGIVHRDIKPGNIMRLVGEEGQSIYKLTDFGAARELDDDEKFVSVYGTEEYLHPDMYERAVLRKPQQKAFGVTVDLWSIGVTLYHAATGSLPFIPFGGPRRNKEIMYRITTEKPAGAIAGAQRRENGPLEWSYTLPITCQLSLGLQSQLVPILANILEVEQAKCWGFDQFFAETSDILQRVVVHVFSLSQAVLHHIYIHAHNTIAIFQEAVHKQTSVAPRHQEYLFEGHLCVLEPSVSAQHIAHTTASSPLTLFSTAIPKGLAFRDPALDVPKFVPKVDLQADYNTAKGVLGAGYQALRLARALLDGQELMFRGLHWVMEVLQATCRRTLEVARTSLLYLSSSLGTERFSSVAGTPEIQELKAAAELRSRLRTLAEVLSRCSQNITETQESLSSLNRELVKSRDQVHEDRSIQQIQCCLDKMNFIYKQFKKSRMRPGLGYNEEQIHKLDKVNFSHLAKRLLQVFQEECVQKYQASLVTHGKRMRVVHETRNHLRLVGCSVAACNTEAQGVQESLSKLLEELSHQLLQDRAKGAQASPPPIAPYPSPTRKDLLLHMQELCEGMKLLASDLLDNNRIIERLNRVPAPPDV

Row | Structure (SMILES) | % Ctrl @ 10000 nM (IKK-EPSILON) [% Ctrl] | % Ctrl @ 10000 nM (PCTK3) [% Ctrl] | % Ctrl @ 10000 nM (ABL2) [% Ctrl] | % Ctrl @ 10000 nM (EPHA6) [% Ctrl] | % Ctrl @ 10000 nM [1] [% Ctrl] | % Ctrl @ 10000 nM (AAK1) [% Ctrl] | % Ctrl @ 10000 nM (MEK6 [2]) [% Ctrl] | % Ctrl @ 10000 nM (CAMK4) [% Ctrl] | number of kinases hit, out of 57 tested (panel of 57 kinases) | % Ctrl @ 10000 nM (SNARK) [% Ctrl] | % Ctrl @ 10000 nM (ERK2) [% Ctrl] | % Ctrl @ 10000 nM (MAP3K4) [% Ctrl] | % Ctrl @ 10000 nM (ALK(L1196M)) [% Ctrl] | IC50 (MEK6 [4]) [µM] | IC50 (MEK1 [5]) [µM] | % Ctrl @ 10000 nM (MEK3) [% Ctrl] | % Ctrl @ 10000 nM (MKK7) [% Ctrl] | % Ctrl @ 10000 nM (PRP6) [% Ctrl] | % Ctrl @ 10000 nM (MEK5) [% Ctrl] | % Ctrl @ 10000 nM (MUSK) [% Ctrl] | further results
1 | O=C(O)c1cccc(-c2n[nH]c3ccccc23)c1 [Compound 6a, 3-(1H-indazol-3-yl)benzoic Acid] | 48 | 100 | 100 | 97 | 40 | 87 | 91 | 100 | 5 | 68 | 96 | 90 | 59 | 10 | 12 | 13 | 66 | 76 | 88 | 100 | compound aggregates by DLS [3]: under no conditions were aggregates observed; % Ctrl @ 10000 nM (MLK2): 100 % Ctrl
2 | O=C(O)c1ccc(-c2n[nH]c3cc(F)ccc23)cc1 [Compound 6ff, 4-(6-fluoro-2H-indazol-3-yl)benzoic Acid] | 43 | 100 | 100 | 99 | 12 | 55 | 78 | 100 | 12 | 53 | 100 | 100 | 61 | 11 | 15 | 1.6 | 52 | 52 | 44 | 65 | efficacy in wound scratch assay (PC3M cells; 10 μM): no efficacy; efficacy in wound scratch assay (PC3M cells; 25 μM): no efficacy; Percent Difference, DMSO vs. 10 uM inhibitor (PC3M cells; PC3M cells, 10 μM, wound gap 0 vs 20 hrs): −1.65%; Percent Difference, DMSO vs. 25 uM inhibitor (PC3M cells; PC3M cells, 25 μM, wound gap 0 vs 20 hrs): −0.16%; % Ctrl @ 10000 nM (MEK1 [6]): 49 % Ctrl; % Ctrl @ 10000 nM (MLK2): 95 % Ctrl
